Experimental data reported in patent publication US20250230226A1, “PLXDC1/PLXDC2 ACTIVATORS AND THEIR USE IN THE TREATMENT OF BLOOD VESSEL DISORDERS” (THE REGENTS OF THE UNIVERSITY OF CALIFORNIA, priority 2019, published 2025).
Values belong to the molecule of their own block, whether it stands above or below them.

How the values were obtained:
[1] = system: tumor blood vessels; assay: Systemic administration in tumor-bearing mouse (FIG. 7); type: in vivo
Source text: FIG. 7A-D. Systemic administration of a compound that targets PLXDC1 and PLXDC2 kills existing tumor blood vessels and leads to massive tumor necrosis. […] The high specificity of the treatment is illustrated by the healthy skin blood vessels that cover the dead yellow tumor. C. The tumor from control mouse in A is cut open to reveal that it is rich in tumor blood vessels and is a live tumor. D. The tumor from compound-treated mouse in B is cut open to reveal a lack of tumor blood vessels and a necrotic tumor with yellow cheese-like appearance (coagulative necrosis). Coagulative necrosis is exactly what is expected for a treatment that can kill existing tumor blood vessels to block major blood supplies to the tumor. Precise and efficient killing of tumor blood vessels to cause massive tumor death by necrosis, which has been achieved by the compound 369 targeting PLXDC1/PLXDC2, cannot be achieved by any existing drugs or known antiangiogenic factors.
The tumor died of massive coagulative necrosis, exactly the kind of cell death caused by killing blood vessels.

[2] = system: choroidal endothelial cells; assay: Ex vivo model of choroidal angiogenesis (FIG. 2); type: cell-based
Protocol: FIG. 2A-E. Comparison of compound 369 (Table 3) with the current anti-angiogenic drug in an ex vivo model of choroidal angiogenesis. A. A schematic diagram of the timeframe of the experiment. […] Treatment lasts for two days before cell death and survival are analyzed. B. Control experiment without any drug treatment at day 7. The white circle in the middle delineates the piece of choroid/RPE that was embedded to initiate neovascularization. C. […] Eylea was added at 10 μM. […] The compound was added at 10 μM. In B-D, green cells are live cells and red cells are dead cells. E. Quantitation of the experiments described in B-D. The amount of new endothelial cells in the untreated control is defined as 100%.

[3] = system: LL/2 lung cancer tumor endothelial cells; assay: Lung LL2 ex vivo model of tumor angiogenesis; type: cell-based, mouse; conditions: for 48 hrs (morphology observations): LL/2 tumor endothelial cells; for Cell death: drug treatment for two days, ratio of red area to total endothelial cell area
Procedure, shortened: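 LL2 mouse tumor fragments (~0.075 mm³) embedded in Matrigel and cultured in endothelial growth medium at 37 °C until endothelial outgrowth (~4 days) before treatment. Cell death assessed e.g. 48 h after drug by fluorescein diacetate (live)/propidium iodide (dead) staining and red/green fluorescence imaging.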

[4] = system: tumor endothelial cells; assay: Ex vivo model of tumor angiogenesis, comparison with anti-VEGF drug and PEDF (FIG. 4); type: cell-based; conditions: cells grown 5 days, test reagents added for 2 days
Protocol: FIG. 4A-F. A comparison between an anti-VEGF drug, PEDF and two compounds that target PLXDC1/PLXDC2 in an ex vivo model of tumor angiogenesis. […] Tumor endothelial cells were grown for 5 days before test reagents were added for 2 days. Green cells are live cells and red cells are dead cells.
• 1. The day before the experiment, all necessary tools were sprayed with 70% ethanol and sterilized under UV light overnight, including blade, dissecting and micro-dissecting scissors and […]. 24-well dishes were placed at 4° C. to pre-chill plates and Matrigel was thawed, 24 hours before tumor dissection. • 2. 70% ethanol was sprayed on working bench. Two sterile petri dishes were prepared with 10 ml sterile PBS. The following steps 3 and 4 are necessary for mouse tumor models. For fresh human tumor, steps 3 and 4 are skipped. • 3. The tumor-bearing mice were euthanized. 70% ethanol was sprayed on the mouse and the tumor was removed using sterilized dissecting tools (avoid the fur). The tumor was rinsed in petri dish with sterile PBS to remove ethanol and fur. […] When the assay was ready to be analyzed for cell death (e.g., 48 hours after drug addition), the dye mixture was prepared by mixing 6 μl of green dye to stain live cells (5 mg/ml Fluorescein diacetate or FDA in DMSO) with 30 μl of red dye (2.5 mg/ml Propidium iodide or PI in PBS) to stain dead cells in an Eppendorf tube. […]

[5] = molecular target: T1, PLXDC1 (Homo sapiens, UniProt Q8IUK5); assay: Gfi1b promotor luciferase receptor activation assay, PLXDC1-expressing cells (FIG. 18A, 19); type: cell-based; conditions: compound treatments 1 day; basal activity defined as 1
T1 construct: expressed in transfected cells
T1 sequence (Q8IUK5 19-500): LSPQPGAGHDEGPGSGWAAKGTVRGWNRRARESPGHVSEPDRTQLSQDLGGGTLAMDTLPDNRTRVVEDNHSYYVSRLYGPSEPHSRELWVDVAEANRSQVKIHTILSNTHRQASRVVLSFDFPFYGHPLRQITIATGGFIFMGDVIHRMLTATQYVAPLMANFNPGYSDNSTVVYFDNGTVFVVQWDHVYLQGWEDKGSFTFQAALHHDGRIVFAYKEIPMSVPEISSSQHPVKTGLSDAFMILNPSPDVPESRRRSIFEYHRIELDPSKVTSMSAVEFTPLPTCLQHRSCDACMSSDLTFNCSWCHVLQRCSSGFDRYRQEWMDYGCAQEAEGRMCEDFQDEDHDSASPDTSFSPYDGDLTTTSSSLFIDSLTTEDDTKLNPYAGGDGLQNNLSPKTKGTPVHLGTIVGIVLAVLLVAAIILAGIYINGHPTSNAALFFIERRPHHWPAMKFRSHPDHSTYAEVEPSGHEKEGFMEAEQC
Source text: FIG. 18A-B show activation of PLXDC1 and PLXDC2 by small molecules. […] All compound treatments were done for 1 day. Basal promotor activity of the PLXDC1-expressing cells is defined as 1.
Basal promotor activity of the PLXDC1-expressing cells is defined as 1. The basal activity of PLXDC1-expressing cells (Control) are higher than cells without PLXDC1, consistent promotor activation by the ectopic expression of the receptor without ligands.
By linking its promotor to a luciferase reporter gene, this example developed a PLXDC1 receptor activation assay.

[6] = system: CT26.CL25 colon cancer tumor endothelial cells; assay: Colon CT26 ex vivo model of tumor angiogenesis; type: cell-based, mouse; conditions: for 48 hrs (morphology observations after 48 hours): Conc. 40 μm; for cytotoxicity at 40 µM: Mus musculus, Endothelial cell, 48 h, read-out: Cell death
Procedure, shortened: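 Pieces of CT26 mouse tumor (~0.075 mm³) embedded in Matrigel and cultured in endothelial growth medium at 37 °C, 5% CO2 until endothelial outgrowth appeared (about 7 days), then treated. About 48 h after drug addition, live/dead staining with fluorescein diacetate and propidium iodide was imaged in green and red channels.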

[7] = Mus musculus, Endothelial cell, 48 h, read-out: Cell death

Compound: CCCCCCCCCCCCOc1ccc(S(=O)(=O)c2cnc3ccc([S+](C)[O-])cc3c2N2CCC(N3CCC(N4CCN(CCO)CC4)CC3)CC2)cc1F (centres unmarked) [Compound 369]
- Killing of existing tumor blood vessels and tumor death [1]: can kill existing tumor blood vessels and lead to strong tumor death
- Killing of endothelial cells in choroidal angiogenesis ([2]; added at 10 μM at day 7, treatment two days): can kill the endothelial cells
- Effect on healthy tissue (choroid and retinal pigment epithelium) ([2]; added at 10 μM, two days): without affecting the healthy tissue
- 48 hrs (morphology observations) ([3]; 20 μm): * (50% or less of cells vesicularize in cell shape)
- Cell death ([3]; 20 μm): 20%
- Killing of existing tumor endothelial cells [4]: can kill existing tumor endothelial cells

- Gfi1b promotor activity in PLXDC1-expressing cells [5]: does not activate this promoter
Compound: O=c1[nH]cc(F)c(=O)[nH]1 [Fluorouracil, 5-fluorouracil, reference compound]

Compound: CCc1ccc(S(=O)(=O)c2cnc3ccc([N+](=O)[O-])cc3c2N2CCCN(C)CC2)cc1 [Compound 76]
- 48 hrs (morphology observations after 48 hours) [6]: ** (more than 50% but less than 100% of endothelial cells vesicularize in cell shape)
- cytotoxicity at 40 µM [6]: 100%
- 48 hrs (morphology observations) ([3]; 40 μm): 0
- Cell death ([3]; 40 μm): 20%

Compound: CCc1ccc(S(=O)(=O)c2cnc3ccc(OC(F)(F)F)cc3c2N(C)Cc2ccccc2)cc1 [Compound 49]
- 48 hrs (morphology observations after 48 hours) [6]: 0
- cytotoxicity at 40 µM [6]: 10%
- Cell death ([3]; 40 μm): 30%

Compound: CCOC(=O)c1ccc2ncc(S(=O)(=O)c3ccc(CC)cc3)c(N3CCC(N4CCCCC4)CC3)c2c1 [Compound 64]
- 48 hrs (morphology observations after 48 hours) [6]: *** (100% of endothelial cells vesicularize in cell shape)
- cytotoxicity at 40 µM [6]: 100%
- 48 hrs (morphology observations) ([3]; 40 μm): *** (more than 50% but less than 100% of endothelial cells vesicularize in cell shape)
- cytotoxicity at 40 µM [3, 7]: 100%

Compound: CCc1ccc(S(=O)(=O)c2cnc3ccc(OC(F)(F)F)cc3c2N2CCCN(CC(=O)O)CC2)cc1 [Compound 42]
- 48 hrs (morphology observations after 48 hours) [6]: 0
- cytotoxicity at 40 µM [6]: 0%
- Cell death ([3]; 40 μm): 30%

Compound: CCc1ccc(S(=O)(=O)c2cnc3ccc(CC#N)cc3c2N2CCC(N3CCCCC3)CC2)cc1 [Compound 55]
- 48 hrs (morphology observations after 48 hours) [6]: 0
- cytotoxicity at 40 µM [6]: 50%
- Cell death ([3]; 40 μm): 70%

Compound: O=[N+]([O-])c1ccc(S(=O)(=O)c2cnc3ccc(OC(F)(F)F)cc3c2N2CCC(N3CCCCC3)CC2)cc1 [Compound 59]
- 48 hrs (morphology observations after 48 hours) [6]: 0
- cytotoxicity at 40 µM [6]: 50%
- Cell death ([3]; 40 μm): 40%

Compound: CCCCOc1ccc(S(=O)(=O)c2cnc3ccc(C(=O)OCC)cc3c2N2CCC(N3CCC(N4CCCCC4)CC3)CC2)cc1 [Compound 216]
- 48 hrs (morphology observations after 48 hours) [6]: **** (100% of endothelial cells vesicularize in cell shape and look flattened in morphology (indicating disintegration of the cell body))
- cytotoxicity at 40 µM [6]: 100%
- 48 hrs (morphology observations) ([3]; 40 μm): **** (100% of endothelial cells vesicularize in cell shape and look flattened in morphology (indicating disintegration of the cell body))
- cytotoxicity at 40 µM [3, 7]: 100%

Compound: CCc1ccc(S(=O)(=O)c2cnc3ccc(OC(F)(F)F)cc3c2N2CCC(N3CCC(O)CC3)CC2)cc1 [Compound 102]
- 48 hrs (morphology observations after 48 hours) [6]: 0
- cytotoxicity at 40 µM [6]: 5%
- 48 hrs (morphology observations) ([3]; 20 μm): 0
- cytotoxicity at 20 µM [3, 7]: 20%
